# According to ChEMBL document CHEMBL3045618, “Effect of seven new orchard pesticides on Galendromus occidentalis in laboratory studies” (2009):
# Experiments:
# Assay type in all cases: functional
# Galendromus occidentalis [1] = test: Toxicity against Metaseiulus occidentalis adults in bean leaf disk infested with two-spotted spider mites assessed as average number of eggs laid (fecundity) at 0.1341 g AI/L treated using worst-case laboratory exposure procedure measured after 24 hr (reference value: 2.11/day)
# Galendromus occidentalis [2] = test: Toxicity against Metaseiulus occidentalis adults in bean leaf disk infested with two-spotted spider mites assessed as corrected mortality at 0.1341 g AI/L treated using worst-case laboratory exposure procedure measured after 72 hr
# Galendromus occidentalis [3] = test: Toxicity against Metaseiulus occidentalis adults in bean leaf disk infested with two-spotted spider mites assessed as corrected mortality at 4x0.1341 g AI/L treated using worst-case laboratory exposure procedure measured after 72 hr
# Galendromus occidentalis [4] = test: Toxicity against Metaseiulus occidentalis adults in bean leaf disk infested with two-spotted spider mites assessed as repellency at 0.1341 g AI/L treated using worst-case laboratory exposure procedure measured after 24 hr (reference value: 3.6%)
# Galendromus occidentalis [5] = test: Ovicidal activity against Metaseiulus occidentalis eggs in bean leaf disk infested with two-spotted spider mites assessed as corrected cumulative mortality at 442 g/L SC formulation treated using worst-case laboratory exposure procedure measured after 144 hr (reference value: 0.7%)
# Galendromus occidentalis [6] = test: Toxicity against Metaseiulus occidentalis adults in bean leaf disk infested with two-spotted spider mites assessed as average number of eggs laid (fecundity) at 0.1341 g AI/L treated using worst-case laboratory exposure procedure measured after 72 hr (reference value: 2.23/day)
# Galendromus occidentalis [7] = test: Toxicity against Metaseiulus occidentalis adults in bean leaf disk infested with two-spotted spider mites assessed as repellency at 0.1341 g AI/L treated using worst-case laboratory exposure procedure measured after 72 hr (reference value: 16.1%)
# Galendromus occidentalis [8] = test: Toxicity against Metaseiulus occidentalis adults in bean leaf disk infested with two-spotted spider mites assessed as average number of eggs laid (fecundity) at 0.1341 g AI/L treated using worst-case laboratory exposure procedure measured after 48 hr (reference value: 2.30/day)
# Galendromus occidentalis [9] = test: Toxicity against Metaseiulus occidentalis adults in bean leaf disk infested with two-spotted spider mites assessed as repellency at 0.1341 g AI/L treated using worst-case laboratory exposure procedure measured after 48 hr (reference value: 13.6%)
# Galendromus occidentalis [10] = test: Toxicity against Metaseiulus occidentalis adults in bean leaf disk infested with two-spotted spider mites assessed as corrected mortality at 2x0.1341 g AI/L treated using worst-case laboratory exposure procedure measured after 72 hr
smiles,measurement,setting,value
CC[C@H]1CCC[C@H](O[C@H]2CC[C@H](N(C)C)[C@@H](C)O2)[C@@H](C)C(=O)C2=C[C@@H]3[C@@H](C=C(C)[C@@H]4C[C@@H](O[C@@H]5O[C@@H](C)[C@H](OC)[C@@H](OC)[C@H]5OC)C[C@@H]34)[C@@H]2CC(=O)O1.CC[C@H]1CCC[C@H](O[C@H]2CC[C@H](N(C)C)[C@@H](C)O2)[C@@H](C)C(=O)C2=C[C@@H]3[C@@H](C=C[C@@H]4C[C@@H](O[C@@H]5O[C@@H](C)[C@H](OC)[C@@H](OC)[C@H]5OC)C[C@@H]34)[C@@H]2CC(=O)O1,Activity,Galendromus occidentalis [1],1.57 day⁻¹
same,mortality,Galendromus occidentalis [2],0.4%
same,mortality,Galendromus occidentalis [3],0%
same,Repellency,Galendromus occidentalis [4],10.9%
same,mortality at 442000 µg/mL (stock),Galendromus occidentalis [5],6.6%
same,Activity,Galendromus occidentalis [6],2.28 day⁻¹
same,Repellency,Galendromus occidentalis [7],28.8%
same,Activity,Galendromus occidentalis [8],1.59 day⁻¹
same,Repellency,Galendromus occidentalis [9],24.4%
same,mortality,Galendromus occidentalis [10],0%
